Publication PMC10675077, “Antimicrobial Properties of New Polyamines Conjugated with Oxygen-Containing Aromatic Functional Groups” (Molecules, 2023)

Columns and labels:
BY4741/YEplac195 = assay: Checkerboard titration synergy, BY4741/YEplac195; type: cell-based, Saccharomyces cerevisiae; settings: synergistic when FICI ≤0.5
Experimental: (§1) The combined antimicrobial activity of the test compounds with the antibacterial or antifungal control agents was performed under the same conditions used for the MIC determination and following the procedures described by Carton Herrán, Reis de Sá et al. and Zharkova et al.. For each experiment, 16 samples (4 rows × 4 columns) in a total volume of 0.5 mL were prepared in tubes using an array of combinations between the MIC value and 0 μg/mL of the compound to be tested in each row, and between the MIC value and 0 μg/mL of the reference drug in each column. In this way, a variety of mixtures with different concentrations of them alone or in combination was obtained. Briefly, 0.5 mL of a microorganism culture was added to each one of the samples, and after incubation for 24 h with shaking at the appropriate temperature (37 °C or 30 °C), the tubs were visually inspected, and the OD600 was measured. From this information, the fractional inhibitory concentration index (FICI) was calculated according to the formula FIC index = ([A]/[CMI A]) + ([B]/[CMI B]), where [A] and [B] are respective concentrations of tested polyamine and reference drug in their combination effectively inhibiting the growth of bacteria or yeast, and [MIC A] and [MIC B] are the individual MICs of the tested polyamine and reference drug when they are used alone. An interaction is considered synergistic when the FICI value is ≤0.5 [41, 42].
(§2) To confirm the data obtained in the checkerboard assay, 30 μL of a ten-fold dilution of the tubes containing concentrations of half of the MIC of each one of the compounds alone (polyamine to be tested and reference drug) and one fourth of the MIC of each one in combination were also spread in LB or SC-ura plates (according to the microorganism considered in each case) and incubated at 37 °C or 30 °C. The visualisation of these plates was performed after 24 or 48 h, respectively. All these experiments were carried out in triplicate.

E. coli = assay: Lytic activity, time-kill (OD600), E. coli; type: cell-based, Escherichia coli; settings: 5 times the MIC
Experimental: To determine if the compounds showing microbicidal activity induce cell lysis, the procedure described by Fleeman et al. was followed, with the modifications indicated below. The E. coli and S. aureus strains were grown as in the experiments described earlier. The cells corresponding to 1.5 units of OD600 were collected and resuspended in 1% BP after washing in the same medium. They were incubated in a final volume of 1 mL with concentrations 5 times higher than the MIC of the analysed compounds, and OD600 was monitored over time. Other antimicrobial compounds were also used in this study as controls. The experiments were performed in triplicate.

BY4741/PDR5 = assay: Checkerboard titration synergy, BY4741/PDR5; type: cell-based, Saccharomyces cerevisiae; settings: synergistic when FICI ≤0.5
Experimental: as §1, §2

yeast cells = assay: Intracellular ATP by luciferase bioluminescence, yeast; type: cell-based, Saccharomyces cerevisiae; settings: 50-fold the MIC, overnight treatment
Experimental: The procedure described by Lehtinen et al. was followed, with the modifications indicated herein. In the case of bacteria, 1.5 OD600 units were incubated overnight in 1 mL of final volume with 5-fold MIC concentrations. Then, the cells were collected, washed 3 times in 20 mM phosphate buffer pH 7.4, and lysed in 200 μL of LS1 (50 mM of glucose, 25 mM of Tris-HCl pH 8.0, and 10 mM of EDTA pH 8.0) containing 5 mg/mL of lysozyme and the same volume of glass beads (425–600 μm), by stirring 10 times for 15 s each. Then, the solution was centrifuged at 14,800× g for 15 min, and the supernatant was used for a luciferase assay. For this purpose, in each well of a microtiter plate, 100 μL of luciferase assay buffer (0.015 M of MgSO4, 0.015 M of KH2PO4 pH 8, 0.004 M of EGTA pH 8, and 2 mM of DTT) was added together to a 50 μL of 0.3 mg/mL luciferin solution in 0.01% (w/v) Triton X-100 and 50 μL of the cell extract. Finally, 15 μL of a 67 μg/mL aqueous solution of luciferase was added. Light emission was immediately detected using a Luminoskan Ascent instrument (Thermo Scientific, Waltham, MA, USA) for 1 s per well. Glass beads, lysozyme, luciferin, and luciferase were purchased from Sigma-Aldrich.
[…] Then, cells were collected and washed as above and resuspended in 500 μL of LS2 (140 mM of NaCl, 1.5 mM of MgCl2, 10 mM of Tris-HCl pH 8.0, and 0.5% (v/v) NP40). Cells were lysed in the presence of 1 volume of glass beads as described above. The next steps were carried out as in the case of bacterial samples.
Experiments were carried out at least in triplicate in all cases, and control drugs and SDS (0.1% (w/v) of the final concentration) were also included.

[1] = parameters: method as in PMID 37335019; settings: 298 K, 0.15 mol/dm NaCl; error in last figure in parentheses; cited from earlier work
S. aureus = assay: Checkerboard titration synergy, S. aureus; type: cell-based, Staphylococcus aureus; settings: synergistic when FICI ≤0.5
Experimental: as §1, §2

| Molecule | Synergy with Amphotericin B (BY4741/YEplac195) | Synergy with Cycloheximide (BY4741/YEplac195) | Synergy with Fluconazole (BY4741/YEplac195) | Lytic activity (OD600 over time) (E. coli) | Synergy with Amphotericin B (BY4741/PDR5) | Synergy with Cycloheximide (BY4741/PDR5) | Intracellular ATP level relative to untreated cells (yeast cells) | Stepwise protonation constant (log K), H2L + H ⇄ H3L [1] | Stepwise protonation constant (log K), H3L + H ⇄ H4L [1] | Stepwise protonation constant (log K), L + H ⇄ HL [1] | Stepwise protonation constant (log K), LH + H ⇄ H2L [1] | Synergy with Ampicillin (S. aureus) | Synergy with Ciprofloxacin (S. aureus) | Synergy with Doxycycline (S. aureus) | Synergy with Gentamicin (S. aureus) |
| --- | --- | --- | --- | --- | --- | --- | --- | --- | --- | --- | --- | --- | --- | --- | --- |
| c1cc2nc(c1)CNCCN(CCNCc1ccc3c(c1)OCO3)CCNC2 [Compound 5a, 2-(3,6,9-triaza-1(2,6)-pyridinacyclodecaphane-6-yl)-N-(benzo[d][1,3]dioxol-5-ylmethyl)ethan-1-amine] | positive results and + | Sinergy and positive results and + | Sinergy and synergic and + | do not have a lytic effect | positive results and + | positive results and + | 50–70% |  |  |  |  |  |  |  |  |
| Oc1ccccc1CNCCN1CCNCc2cccc(n2)CNCC1 [Compound 6a] | positive results and + | positive results and + | - | do not have a lytic effect | positive results and + | positive results and + | 50–70% | 7.92 (1) | 6.67 (2) | 9.93 (1) | 9.11 (1) | no synergy and - | no synergy and - | no synergy and - | no synergy and - |
| Oc1ccc(CNCCN2CCNCc3cccc(n3)CNCC2)cc1 [Compound 7a] |  |  |  |  |  |  |  | 8.516 (8) | 7.341 (9) | 10.153 (9) | 9.473 (9) |  |  |  |  |
| N^1-(benzo[d][1,3]dioxol-5-ylmethyl)-N^3-(2-((2-((3-((benzo[d][1,3]dioxol-5-ylmethyl)amino)propyl)amino)ethyl)(2-((3-(((2,3-dihydrobenzofuran-6-yl)methyl)amino)propyl)amino)ethyl)amino)ethyl)propane-1,3-diamine [Compound 4a] | positive results and + | Sinergy and positive results and + | Sinergy and synergic and + |  | positive results and + | positive results and + |  |  |  |  |  |  |  |  |  |
